Experimental data: article PMC7493962, “Structure-based inhibitors targeting the alpha-helical domain of the Spiroplasma melliferum histone-like HU protein” (Scientific Reports, 2020)
Converted amounts (≈) assume the structure as drawn. Read-outs that look alike come from different tables or passages of the source.

What was measured:
[1] = system: HUSpm (Spiroplasma melliferum), PDB:5L8Z_1; experiment: EMSA; settings: EMSA: 20 mM Tris-HCl pH 8.0, 150 mM NaCl, 7% glycerol, 10 nM DNA, 10 min, temperature not stated; NMR: 50 mM sodium phosphate pH 7.2, 0.1 mM NaN3, 30 C
[2] = biological target: HUMgal (Mycoplasmoides gallisepticum, UniProt A0A0F6CKR5); experiment: EMSA, inhibition of HUMgal DNA binding; design: species or system Mycoplasma gallisepticum
Method: (§3) One protein was from mycoplasma M. gallisepticum (HUMgal) and another was HUα-homodimer from E. coli (HUEc). […] To assess the effect of the three BDFs on DNA binding properties of the three HU proteins, increasing concentrations of inhibitors were mixed with preset DNA–protein complexes and EMSA was performed and quantified as described in the Methods.
(§4) Binding of HU proteins to DNA was analyzed by electrophoretic mobility shift assays (EMSA) performed as described previously[5]. Different amounts of the HU proteins (30 nM HUSpm and HUSpm_K35T, 60 nM HUMgal and HUEc, 100 nM HUSpm_K80A and HUSpm_K88A, and 200 mM HUSpm_R57A) were incubated with DNA (10 nM) in 10 μl of the binding buffer (20 mM Tris–HCl pH 8.0, 7% glycerol, and 150 mM of NaCl) for 10 min. Then, the samples were loaded to pre-runned (125 V, 30 min) 10% non-denaturing PAAG, buffered with 100 mM Tris–borate, and electrophoretically separated (125 V, 90 min). […] Gels were visualized using BIO RAD Faros FX Molecular Imager (532 nm EX, 605 nm BP), and quantification was performed using Quantity One software.
(§5) To evaluate the effects of inhibitors, 1 μl volumes of serial dilutions of tested compounds or DMSO were added to the preformed protein-DNA complexes. After five minute incubation, the assay was carried out as described above. Inhibition curves and IC50 values were obtained using GraphPad Prism 5 software.

[3] = biological target: HUSpm (Spiroplasma melliferum, UniProt A0ABX5UAT3); experiment: biochemical; type: binding
Method: In silico screening by molecular docking and filtering was performed to identify compounds interacting with the core region of the DNA-binding saddle-like domain of HU proteins (Fig. 1A) previously characterized in[35]. High-resolution spatial structure of HUSpm (PDB ID 5L8Z[9]) was chosen as a target for virtual screening of one million compounds from the Vitas-M laboratory library collection (https://vitasmlab.biz/). The screening (see "Methods" for a description) identified a set of five compounds (Supplementary Table S1), further evaluation of which was carried out by an electromobility shift assay (EMSA) performed as described in[5]. In the assay, formation of DNA–protein complexes retards migration of dye-labeled DNA-duplexes during non-denaturing PAGE that gives a shifted fluorescent band. The presence of an inhibitor prevents complex formation and corresponding band shifting.
All oligonucleotides were synthesized by Evrogen (Moscow, Russia).
For 48 bp DNA duplexes, 8% PAAG was used.

[4] = system: M. gallisepticum S6; experiment: Broth micro-dilution test, MIC; type: cell-based, Mycoplasma gallisepticum; settings: M. gallisepticum growth in culture, phenol red colour change, three determinations
Source text: (§1) Since HU proteins are known to be essential for mycoplasma cell viability, [32], we assessed the effects of the inhibitors on M. gallisepticum and S. melliferum growth in culture. […] The growth of metabolizing organisms causes a change in the pH of the medium leading to a visible color change due to the presence of phenol red in the medium. When the growth of bacteria is inhibited, color change is not observed. The MIC is the lowest inhibitor concentration that prevents the color change at the time when the color change has developed in control (untreated) samples.
(§2) The S. melliferum KC3 strain was kindly provided by Prof. G. Wroblewsky of the University of Rennes, France. The M. gallisepticum S6 strain was provided by Prof. S. N. Borkhsenius, Institute of Cytology, St. Petersburg, Russian Academy of Science. The bacteria were cultivated as described in[62] without any specific aeration in covered flasks, for less than five passage. M. gallisepticum S6 was cultivated in a modified Edward’s liquid medium (tryptose (20 g/l), Tris (3 g/l), NaCl (5 g/l), KCl (1.3 g/l), yeast dialysate (5%), heat inactivated (56 °C–30 min) horse serum (6%), glucose (0.5%) and penicillin 300U/ml, pH 7.5) at 37 °C for 20 h after 1:100 dilution. […]

[5] = Solubility (stated in words); type: physicochemical; settings: water
[6] = biological target: HUSpm_K35T (Spiroplasma melliferum, UniProt A0ABX5UAT3, K35T)
Method: Thus, previously obtained HUSpm mutants (F14A, F29A, F31A and K35T) were employed for inhibitor evaluation.
(§6) Binding of HU proteins to DNA was analyzed by electrophoretic mobility shift assays (EMSA) performed as described previously[5]. Different amounts of the HU proteins (30 nM HUSpm and HUSpm_K35T, 60 nM HUMgal and HUEc, 100 nM HUSpm_K80A and HUSpm_K88A, and 200 mM HUSpm_R57A) were incubated with DNA (10 nM) in 10 μl of the binding buffer (20 mM Tris–HCl pH 8.0, 7% glycerol, and 150 mM of NaCl) for 10 min. Then, the samples were loaded to pre-runned (125 V, 30 min) 10% non-denaturing PAAG, buffered with 100 mM Tris–borate, and electrophoretically separated (125 V, 90 min). […] Gels were visualized using BIO RAD Faros FX Molecular Imager (532 nm EX, 605 nm BP), and quantification was performed using Quantity One software. The dissociation constants (Kd) were calculated as described earlier[16].
as §5

[7] = system: HUSpm mutants (F14A, F29A, F31A); experiment: EMSA, inhibitor evaluation on HUSpm mutants F14A, F29A, F31A; type: binding, Spiroplasma melliferum; settings: data not shown
[8] = biological target: HUSpm_K80A (Spiroplasma melliferum, UniProt A0ABX5UAT3, K80A); settings: read-out: IC50 against HUSpm mutant HUSpm_K80A; EMSA with DS24a; mean ± SD from three runs; 100 nM protein
Method: as §6, §5

[9] = biological target: HUSpm_R57A (Spiroplasma melliferum, UniProt A0ABX5UAT3, R57A); settings: read-out: IC50 against HUSpm mutant HUSpm_R57A; EMSA with DS24a; mean ± SD from three runs; 200 mM HUSpm_R57A as printed
Method: as §6, §5

[10] = system: S. melliferum KC3; experiment: Broth micro-dilution test, MIC; type: cell-based, Spiroplasma melliferum; settings: S. melliferum growth in culture, phenol red colour change, three determinations
Source text: as §1, §2

[11] = biological target: HUSpm_K88A (Spiroplasma melliferum, UniProt A0ABX5UAT3, K88A); settings: read-out: IC50 against HUSpm mutant HUSpm_R88A (so in the source); EMSA with DS24a; mean ± SD from three runs; 100 nM protein
Method: as §6, §5

[12] = biological target: T1, HUEc (HUα-homodimer from E. coli) (Escherichia coli, UniProt P0ACF0); experiment: biochemical; type: binding
T1 construct: made in house
Method: as §3, §4, §5

[13] = EMSA with DS24a, average ± SD from three runs, read-out: IC50, inhibition of HUMgal DNA-binding
[14] = EMSA with DS24a duplex, average±SD from three runs, read-out: IC50, half-maximal inhibitory concentration of HUSpm-DNA complex formation
[15] = EMSA with DS48 duplex, average±SD, n=3, read-out: IC50, half-maximal inhibitory concentration of HUSpm-DNA complex formation

Sequence of HUMgal (A0A0F6CKR5 entry or part of it): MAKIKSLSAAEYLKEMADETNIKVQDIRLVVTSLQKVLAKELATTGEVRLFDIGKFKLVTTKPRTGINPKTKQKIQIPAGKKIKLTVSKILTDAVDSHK
T1 sequence (P0ACF0 whole entry): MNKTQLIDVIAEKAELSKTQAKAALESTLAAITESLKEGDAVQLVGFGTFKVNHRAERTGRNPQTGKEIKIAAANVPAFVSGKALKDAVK

Molecule “AGTCTAGAGTGCAGTTGAGTCCTTGCTACGACGGATCCCTTAGGTCAG / AAGGACTCAACTGCACTCTAGACT / CTGACCTAAGGGATCCGTCGTAG [Nick (N)]” has a Kd [1] of 0.0052 µM.
With “4,5'-[4,4'-(9H-fluorene-9,9-diyl)bis(4,1-phenylene)]-bis(oxy)-bis(oxomethylene)-bis[2-(m-tolylcarbamoyl)-benzoic acid] [BDF5]” the IC50 [2, 13] was 5.9 ± 0.8 µM and the IC50 [3, 14] was 6.3 ± 0.7 µM.
“AGTCTAGAGTGCAAGTTGAGTCCTT / AAGGACTCAACTGCACTCTAGACT [DS24a (24a)]” showed a Kd [1] of 0.0026 µM.
For `O=C(Oc1ccc(C2(c3ccc(OC(=O)c4ccc(C(=O)O)c(C(=O)O)c4)cc3)c3ccccc3-c3ccccc32)cc1)c1ccc(C(=O)O)c(C(=O)O)c1` [BDF4, 4,4'-[4,4'-(9H-fluorene-9,9-diyl)-bis(4,1-phenylene)]-bis(oxy)-bis(oxomethylene)diphthalic acid], the MIC ([4]; Mycoplasmoides gallisepticum, S6, read-out: MIC, minimal inhibitory concentration) was 40 to 70 µM (≈ 29.4 to 51.4 µg/mL), the Solubility [5] was “water solubility” and the IC50 [2, 13] was 5 ± 0.6 µM. The “Decrease of the IC50 value as compared to wild type HUSpm” value ([6]; HUSpm_K35T vs wild type, DS24a) was “about threefold decrease”, the IC50 ([6]; read-out: IC50 against HUSpm mutant HUSpm_K35T, EMSA with DS24a, mean ± SD from three runs, 30 nM protein) was 1.8 ± 0.3 µM and the “Effect of other mutations (F14A, F29A, F31A) on sensitivity to inhibitor” value [7] was “did not cause any significant effects”. It also gave an IC50 [8] of 5.9 ± 0.9 µM, an IC50 [9] of 6.3 ± 1 µM and an IC50 ([3]; read-out: IC50, half-maximal inhibitory concentration of HUSpm-DNA complex formation, EMSA with DS24a duplex, average±SD from three runs) of 5.6 ± 0.8 µM. For the same molecule, the MIC ([10]; Spiroplasma melliferum, KC3, read-out: MIC, minimal inhibitory concentration) was 40 to 70 µM (≈ 29.4 to 51.4 µg/mL) and the IC50 [11] was 6.3 ± 1.2 µM.
For `O=C(Oc1ccc(C2(c3ccc(OC(=O)c4ccc(C(=O)O)c(C(=O)O)c4)cc3)c3ccccc3-c3ccccc32)cc1)c1ccc(C(=O)O)c(C(=O)O)c1` [BDF1], the “Inhibition of HUSpm-DNA binding, first round of EMSA” value ([3]; 100 μM compound, DS48) was “inhibits HUSpm-DNA binding”, the IC50 [3, 14] was 6.2 ± 0.5 µM and the IC50 [3, 15] was 6.5 ± 0.9 µM.
Work on `CSCCC(NS(=O)(=O)c1ccc2c(c1)C(=O)c1cc(S(=O)(=O)NC(CCSC)C(=O)O)ccc1-2)C(=O)O` (stereo not shown) [compound 3] yielded an IC50 [3, 15] of over 100 µM.
For `O=C(O)c1cccc(C(=O)Oc2ccc(C3(c4ccc(OC(=O)c5cccc(C(=O)O)c5)cc4)c4ccccc4-c4ccccc43)cc2)c1` [BDF6, 3.3′-[4.4′-(9H-fluorene-9.9-diyl)-bis(4.1-phenylene)]-bis(oxy)-bis(oxomethylene)-dibenzoic acid], the “MIC, minimal inhibitory concentration” value [4] was “worst MIC”, the Solubility [5] was “limited solubility” and the IC50 ([2]; DS24a, representative result of one independent assay, read-out: IC50 given in figure, HUMgal DNA binding) was 8.2 µM. It also gave an IC50 [2, 13] of 8.1 ± 1 µM, an IC50 ([12]; IC50, inhibition of HUEc DNA-binding, EMSA with DS24a, average ± SD from three runs) of 10 ± 1.3 µM and an IC50 ([12]; IC50 given in figure, HUEc DNA binding, DS24a, representative result of one independent assay) of 9.5 µM. The IC50 ([3]; IC50, half-maximal inhibitory concentration of HUSpm-DNA complex formation, EMSA with DS24a duplex, average±SD from three runs) was 8.2 ± 1.1 µM, the IC50 ([3]; IC50 given in figure, HUSpm-DNA binding, DS24a, representative result of one independent assay) was 8.7 µM and the “MIC, minimal inhibitory concentration” value [10] was “worst MIC”.
For “AGTCTAGAGTGCAGTTGAGTCCTTGCTACGACGGATCCCTTAGGTCAG (double strand) [DS48 (48)]”, the Kd [1] was 0.0186 µM.
“AGTCTAGAGTGCAGTTGAGTCCTTGCTACGACGGATCCCTTAGGTCAG / CTGACCTAAGGGATCCGTCGTAGCAAGAGACTCAACTGCACTCTAGACT [A1 bulge (A1)]” gave a Kd [1] of 0.0025 µM.
“AGTCTAGAGTGCAGTTGAGTCCTTGCTACGACGGATCCCTTAGGTCAG / CTGACCTAAGGGATCCGTCGTAGCAAGAAAAAAAGACTCAACTGCACTCTAGACT [A7 bulge (A7)]” gave a Kd [1] of 0.002 µM.
